In general, pKi refers to the Ki on a negative log10 scale, so that one unit is a factor of ten.

pKi: −log10 of the molar value. Structures can show the parent of a compound that is named as a salt.

The target of test [1] is purified human plasma kallikrein (Homo sapiens (Human), UniProt P03952). The test is described as follows: Plasma kallikrein enzyme inhibition assay (chromogenic substrate S-2302). The format is biochemical.
Method: The effectiveness of compounds of the present invention as inhibitors of the coagulation Factors XIa, VIIa, IXa, Xa, XIIa, plasma kallikrein or thrombin, can be determined using a relevant purified serine protease, respectively, and an appropriate synthetic substrate. The rate of hydrolysis of the chromogenic or fluorogenic substrate by the relevant serine protease was measured both in the absence and presence of compounds of the present invention. […] A decrease in the rate of absorbance or fluorescence change in the presence of inhibitor is indicative of enzyme inhibition. […] The results of this assay are expressed as the inhibitory constant, Ki.
Values of Ki were determined by allowing the protease to react with the substrate in the presence of the inhibitor.
The following relationships were used to calculate Ki values: (Vmax*S)/(Km+S); (vo−vs)/vs=I/(Ki(1+S/Km)) for a competitive inhibitor with one binding site; or vs/vo=A+((B−A)/1+((IC50/(I)n))); and Ki−IC50/((1+S/Km) for a competitive inhibitor where:
Test [2] has as its target purified human Factor XIa (Homo sapiens (Human), UniProt P03951). Description: Factor XIa enzyme inhibition assay (chromogenic substrate S-2366). The note with it: read-out: Factor XIa Ki; measured at 25° C.
Where [3] appears, read: measured at 25° C. (no asterisk), TFA salt.
Where [4] appears, read: measured at 25° C. (no asterisk).

Chain of purified human plasma kallikrein (P03952 391-638): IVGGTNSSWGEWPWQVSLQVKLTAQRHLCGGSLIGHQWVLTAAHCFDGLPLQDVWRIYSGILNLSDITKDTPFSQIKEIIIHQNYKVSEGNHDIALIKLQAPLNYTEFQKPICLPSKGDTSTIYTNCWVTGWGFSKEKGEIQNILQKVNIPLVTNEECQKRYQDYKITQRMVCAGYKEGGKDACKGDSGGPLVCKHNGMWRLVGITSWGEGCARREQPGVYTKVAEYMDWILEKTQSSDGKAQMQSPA
Chain of purified human plasma kallikrein (P03952 20-390 partner): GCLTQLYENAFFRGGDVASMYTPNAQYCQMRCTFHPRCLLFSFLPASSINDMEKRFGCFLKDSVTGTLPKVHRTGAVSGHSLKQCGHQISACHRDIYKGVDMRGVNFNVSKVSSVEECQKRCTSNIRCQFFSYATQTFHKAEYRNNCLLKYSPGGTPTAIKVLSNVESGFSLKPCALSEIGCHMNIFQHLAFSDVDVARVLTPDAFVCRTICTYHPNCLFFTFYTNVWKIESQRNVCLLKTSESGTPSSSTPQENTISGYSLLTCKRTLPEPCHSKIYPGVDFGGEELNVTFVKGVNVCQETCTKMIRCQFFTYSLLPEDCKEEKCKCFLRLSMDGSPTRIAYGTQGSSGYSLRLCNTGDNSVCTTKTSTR
Chain of purified human Factor XIa (P03951 388-625): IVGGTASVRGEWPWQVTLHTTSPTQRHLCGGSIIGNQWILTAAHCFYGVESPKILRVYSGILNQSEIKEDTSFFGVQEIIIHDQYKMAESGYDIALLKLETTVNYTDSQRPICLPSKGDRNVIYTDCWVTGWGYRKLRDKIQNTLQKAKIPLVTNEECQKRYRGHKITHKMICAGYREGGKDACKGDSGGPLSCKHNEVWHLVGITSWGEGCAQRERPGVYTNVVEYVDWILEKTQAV
Chain of purified human Factor XIa (P03951 19-387 partner): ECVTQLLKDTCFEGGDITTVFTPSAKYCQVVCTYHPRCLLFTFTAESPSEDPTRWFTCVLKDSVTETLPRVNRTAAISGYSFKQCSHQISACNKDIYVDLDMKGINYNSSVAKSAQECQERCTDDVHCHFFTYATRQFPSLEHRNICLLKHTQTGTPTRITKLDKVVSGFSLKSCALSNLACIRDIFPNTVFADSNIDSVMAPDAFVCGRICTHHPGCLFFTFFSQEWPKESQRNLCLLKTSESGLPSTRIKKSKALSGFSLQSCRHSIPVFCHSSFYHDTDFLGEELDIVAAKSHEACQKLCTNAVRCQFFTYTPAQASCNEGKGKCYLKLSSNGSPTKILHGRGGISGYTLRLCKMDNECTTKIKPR

On to `COC1CCN(c2cccc3c2CCN(C(=O)C2CC(c4cccc(Cl)c4F)=NO2)C3C(=O)Nc2ccc(C(=O)O)cc2)CC1` (single isomer, unassigned) [Example 303, 4-(2-(3-(3-chloro-2-fluorophenyl)-4,5-dihydroisoxazole-5-carbonyl)-5-(4-methoxypiperidin-1-yl)-1,2,3,4-tetrahydroisoquinoline-1-carboxamido)benzoic acid, TFA salt], for which the pKi in test [1] (setting [3]) is 5.71. In the case of `COC1CCN(c2cccc3c2CCN(C(=O)C2CC(c4cccc(Cl)c4F)=NO2)C3C(=O)Nc2ccc(C(=O)O)cc2)CC1` (single isomer, unassigned) [Example 304, 4-(2-(3-(3-chloro-2-fluorophenyl)-4,5-dihydroisoxazole-5-carbonyl)-5-(4-methoxypiperidin-1-yl)-1,2,3,4-tetrahydroisoquinoline-1-carboxamido)benzoic acid, TFA salt], in test [1] (setting [3]), the pKi was 6.64. With `COC1CCN(c2cccc3c2CCN(C(=O)C2CC(c4cccc(Cl)c4F)=NO2)C3C(=O)Nc2ccc(C(=O)O)cc2)CC1` (single isomer, unassigned) [Example 305, 4-(2-(3-(3-chloro-2-fluorophenyl)-4,5-dihydroisoxazole-5-carbonyl)-5-(4-methoxypiperidin-1-yl)-1,2,3,4-tetrahydroisoquinoline-1-carboxamido)benzoic acid, TFA], the pKi in test [1] (measured at 25° C. (no asterisk), TFA) was 7.50. Consider `O=C(O)c1ccc(NC(=O)C2c3cccc(N4CCOCC4)c3CCN2C(=O)[C@H]2CC(c3cccc(Cl)c3F)=NO2)cc1` (stereo in doubt) [Example 296, 4-((S)-2-((R)-3-(3-chloro-2-fluorophenyl)-4,5-dihydroisoxazole-5-carbonyl)-5-morpholino-1,2,3,4-tetrahydroisoquinoline-1-carboxamido)benzoic acid, TFA salt], for which, in test [1] (setting [4]), the pKi was 6.73. `O=C(O)c1ccc(NC(=O)[C@@H]2c3ccccc3CCN2C(=O)[C@H]2CC(c3cccc(Cl)c3F)=NO2)cc1` [Example 4, 4-((S)-2-((R)-3-(3-Chloro-2-fluorophenyl)-4,5-dihydroisoxazole-5-carbonyl)-1,2,3,4-tetrahydroisoquinoline-1-carboxamido)benzoic acid] showed a pKi in test [1] (setting [4]) of 8.20.

`O=C(O)c1ccc(NC(=O)[C@H]2c3ccccc3CCN2C(=O)[C@H]2CC(c3cccc(Cl)c3F)=NO2)cc1` [Example 5, 4-((R)-2-((R)-3-(3-Chloro-2-fluorophenyl)-4,5-dihydroisoxazole-5-carbonyl)-1,2,3,4-tetrahydroisoquinoline-1-carboxamido)benzoic acid] had a pKi in test [1] (setting [4]) of 5.86.

In turn, `CNC(=O)c1ccc(-c2cccc3c2CCN(C(=O)[C@H]2CC(c4cccc(Cl)c4F)=NO2)[C@@H]3C(=O)Nc2ccc(C(=O)O)cc2)cn1` [Example 19, 4-((S)-2-((R)-3-(3-Chloro-2-fluorophenyl)-4,5-dihydroisoxazole-5-carbonyl)-5-(6-(methylcarbamoyl)pyridin-3-yl)-1,2,3,4-tetrahydroisoquinoline-1-carboxamido)benzoic acid, TFA salt] had a pKi in test [1] (setting [4]) of 8.82. On the same count and under the same terms, the value for `CNC(=O)c1ccc(-c2cccc3c2CCN(C(=O)[C@H]2CC(c4cccc(Cl)c4F)=NO2)[C@H]3C(=O)Nc2ccc(C(=O)O)cc2)cn1` [Example 20, 4-((R)-2-((R)-3-(3-Chloro-2-fluorophenyl)-4,5-dihydroisoxazole-5-carbonyl)-5-(6-(methylcarbamoyl)pyridin-3-yl)-1,2,3,4-tetrahydroisoquinoline-1-carboxamido)benzoic acid, TFA salt] was 6.08.

In test [1] (measured at 37° C. (*)), `O=C(O)c1ccc(NC(=O)[C@@H]2c3cccc(-c4cncc(F)c4)c3CCN2C(=O)[C@H]2CC(c3cccc(Cl)c3F)=NO2)cc1` [Example 21, 4-((S)-2-((R)-3-(3-Chloro-2-fluorophenyl)-4,5-dihydroisoxazole-5-carbonyl)-5-(5-fluoropyridin-3-yl)-1,2,3,4-tetrahydroisoquinoline-1-carboxamido)benzoic acid, TFA salt] had a pKi of 8.02. `O=C(O)c1ccc(NC(=O)[C@H]2c3cccc(-c4cncc(F)c4)c3CCN2C(=O)[C@H]2CC(c3cccc(Cl)c3F)=NO2)cc1` [Example 22, 4-((R)-2-((R)-3-(3-Chloro-2-fluorophenyl)-4,5-dihydroisoxazole-5-carbonyl)-5-(5-fluoropyridin-3-yl)-1,2,3,4-tetrahydroisoquinoline-1-carboxamido)benzoic acid, TFA salt]: the pKi in test [1] (measured at 37° C. (*)) is 6.06. `COCCOc1cccc2c1CCN(C(=O)[C@H]1CC(c3cccc(Cl)c3F)=NO1)[C@@H]2C(=O)Nc1ccc(C(=O)O)cc1` [Example 114, 4-((S)-2-((R)-3-(3-Chloro-2-fluorophenyl)-4,5-dihydroisoxazole-5-carbonyl)-5-(2-methoxyethoxy)-1,2,3,4-tetrahydroisoquinoline-1-carboxamido)benzoic Acid] had a pKi in test [1] (setting [4]) of 7.82. Same read-out and setting: the value for `COCCOc1cccc2c1CCN(C(=O)[C@H]1CC(c3cccc(Cl)c3F)=NO1)[C@H]2C(=O)Nc1ccc(C(=O)O)cc1` [Example 115, 4-((R)-2-((R)-3-(3-Chloro-2-fluorophenyl)-4,5-dihydroisoxazole-5-carbonyl)-5-(2-methoxyethoxy)-1,2,3,4-tetrahydroisoquinoline-1-carboxamido)benzoic acid] was 7.21. With `COC1CCN(c2cccc3c2CCN(C(=O)C2CCN(c4cccc(Cl)c4)C2=O)C3C(=O)Nc2ccc(C(=O)O)cc2)CC1` (centres unmarked) [Example 151, 4-(2-(1-(3-chlorophenyl)-2-oxopyrrolidine-3-carbonyl)-5-(4-methoxypiperidin-1-yl)-1,2,3,4-tetrahydroisoquinoline-1-carboxamido)benzoic acid, TFA salt], in test [1] (setting [4]), the pKi is 6.09. Compound `CN1CCN(c2cccc3c2CCN(C(=O)C2CC(c4cccc(Cl)c4F)=NO2)C3C(=O)Nc2ccc(C(=O)O)cc2)CC1` (centres unmarked) [Example 202, 4-(2-(3-(3-chloro-2-fluorophenyl)-4,5-dihydroisoxazole-5-carbonyl)-5-(4-methylpiperazin-1-yl)-1,2,3,4-tetrahydroisoquinoline-1-carboxamido)benzoic acid, 2 TFA salt] showed a negative-log Ki (pKi) in test [1] (setting [4]) of 8.95. With `O=C(O)c1ccc(NC(=O)[C@@H]2c3cccc(N4CCC(C5COC5)CC4)c3CCN2C(=O)[C@H]2CC(c3cccc(Cl)c3F)=NO2)cc1` [Example 234, 4-((S)-2-((R)-3-(3-Chloro-2-fluorophenyl)-4,5-dihydroisoxazole-5-carbonyl)-5-(4-(oxetan-3-yl)piperidin-1-yl)-1,2,3,4-tetrahydroisoquinoline-1-carboxamido)benzoic acid, TFA salt], the pKi in test [1] (measured at 37° C. (*)) is 7.57.

Take `O=C(O)c1ccc(NC(=O)[C@@H]2c3cccc(-n4cnnc4)c3CCN2C(=O)[C@H]2CC(c3cccc(Cl)c3F)=NO2)cc1` [Example 247, 4-((S)-2-((R)-3-(3-Chloro-2-fluorophenyl)-4,5-dihydroisoxazole-5-carbonyl)-5-(4H-1,2,4-triazol-4-yl)-1,2,3,4-tetrahydroisoquinoline-1-carboxamido)benzoic acid, TFA salt]: the pKi in test [1] (measured at 37° C. (*)) was 8.04. With `O=C(O)c1ccc(NC(=O)[C@H]2c3cccc(-n4cnnc4)c3CCN2C(=O)[C@H]2CC(c3cccc(Cl)c3F)=NO2)cc1` [Example 248, 4-((R)-2-((R)-3-(3-Chloro-2-fluorophenyl)-4,5-dihydroisoxazole-5-carbonyl)-5-(4H-1,2,4-triazol-4-yl)-1,2,3,4-tetrahydroisoquinoline-1-carboxamido)benzoic acid, TFA salt], the pKi in test [1] (measured at 37° C. (*)) was 7.08. On to `O=C(O)c1ccc(NC(=O)[C@@H]2c3cccc(N4CCOCC4=O)c3CCN2C(=O)[C@H]2CC(c3cccc(Cl)c3F)=NO2)cc1` [Example 289, 4-((S)-2-((R)-3-(3-chloro-2-fluorophenyl)-4,5-dihydroisoxazole-5-carbonyl)-5-(3-oxomorpholino)-1,2,3,4-tetrahydroisoquinoline-1-carboxamido)benzoic acid,], for which, in test [2], the pKi was above 8.30.

In test [1] (setting [4]), `O=C(O)c1ccc(NC(=O)[C@@H]2c3cccc(N4CCCCC4)c3CCN2C(=O)[C@H]2CC(c3cccc(Cl)c3F)=NO2)cc1` [Example 291, 4-((S)-2-((R)-3-(3-chloro-2-fluorophenyl)-4,5-dihydroisoxazole-5-carbonyl)-5-(piperidin-1-yl)-1,2,3,4-tetrahydroisoquinoline-1-carboxamido)benzoic acid, TFA salt] had a pKi of 7.82. The same measure, in the same setting: the value for `O=C(O)c1ccc(NC(=O)[C@H]2c3cccc(N4CCCCC4)c3CCN2C(=O)[C@H]2CC(c3cccc(Cl)c3F)=NO2)cc1` [Example 292, 4-((R)-2-((R)-3-(3-chloro-2-fluorophenyl)-4,5-dihydroisoxazole-5-carbonyl)-5-(piperidin-1-yl)-1,2,3,4-tetrahydroisoquinoline-1-carboxamide)benzoic acid, TFA salt] was 6.12; that for `COc1cccc2c1CCN(C(=O)[C@H]1CC(c3cccc(Cl)c3F)=NO1)[C@@H]2C(=O)Nc1ccc(C(=O)O)cc1` [Example 293, 4-((S)-2-((R)-3-(3-chloro-2-fluorophenyl)-4,5-dihydroisoxazole-5-carbonyl)-5-methoxy-1,2,3,4-tetrahydroisoquinoline-1-carboxamide)benzoic acid] was 8.49; that for `COc1cccc2c1CCN(C(=O)[C@H]1CC(c3cccc(Cl)c3F)=NO1)[C@H]2C(=O)Nc1ccc(C(=O)O)cc1` [Example 294, 4-((R)-2-((R)-3-(3-chloro-2-fluorophenyl)-4,5-dihydroisoxazole-5-carbonyl)-5-methoxy-1,2,3,4-tetrahydroisoquinoline-1-carboxamido)benzoic acid] was 6.95.

For the compound `O=C(O)c1ccc(NC(=O)[C@@H]2c3cccc(N4CCOCC4)c3CCN2C(=O)[C@H]2CC(c3cccc(Cl)c3F)=NO2)cc1` [Example 295, 4-((S)-2-((R)-3-(3-chloro-2-fluorophenyl)-4,5-dihydroisoxazole-5-carbonyl)-5-morpholino-1,2,3,4-tetrahydroisoquinoline-1-carboxamido)benzoic acid, TFA salt], in test [1] (setting [4]), the pKi was 8.61.

For the origin of these results see patent US9738655B2, “Tetrahydroisoquinolines containing substituted azoles as factor XIa inhibitors” (BRISTOL-MYERS SQUIBB COMPANY, priority 2013, dated 2017).
